Experimental data as given in ChEMBL document CHEMBL5537183, “Discovery, Optimization, and Biological Evaluation of Arylpyridones as Cbl-b Inhibitors” (J Med Chem, 2024).

Legend:
[1] = target: T1, E3 ubiquitin-protein ligase CBL-B (Homo sapiens, UniProt Q13191); assay: Inhibition of biotinylated recombinant Cbl-b (36 to 427 residues)(unknown origin) expressed in Escherichia coli BL21(DE3) Tuner cells assessed as decrease in Cbl-b auto-ubiquitination incubated for 60 mins in presence of Ub-FITC/ATP by TR-FRET assay
[2] = target: T1, E3 ubiquitin-protein ligase CBL-B; assay: Inhibition of biotinylated recombinant Cbl-b (36 to 427 residues)(unknown origin) expressed in Escherichia coli BL21(DE3) Tuner cells assessed as decrease in ZAP70 ubiquitination incubated for 60 mins in presence of Ub-FITC/ATP by TR-FRET assay
[3] = Induction of IL-2 production in human T cells; type: functional, cell-based, T-cell
[4] = target: E3 ubiquitin-protein ligase CBL (Homo sapiens, UniProt P22681); assay: Inhibition of cCbl (unknown origin) by TR-FRET assay
[5] = Lipophilicity, logD of compound at pH 7.4; type: physicochemical; details: buffer
[6] = Clearance in rat hepatocytes assessed as measured per million cells at 0.1 to 1 uM measured for 120 mins by LC-MS/MS analysis; type: ADME, cell-based, Hepatocyte; details: dose 0.1-1 µM
[7] = Stability in human liver microsome assessed as intrinsic clearance; type: ADME; details: liver microsomes, read-out: CLH
[8] = target: T1, E3 ubiquitin-protein ligase CBL-B; assay: Inhibition of biotinylated recombinant Cbl-b (36 to 427 residues)(unknown origin) expressed in Escherichia coli BL21(DE3) Tuner cells using a FAM-labeled probe by TR-FRET assay
[9] = Cmax in Wistar Han rat at 1 mg/kg, po measured for 24 hrs by LC-MS/MS analysis; type: ADME, organism-based; details: in vivo
[10] = Half life in CD1 mouse at 0.5 mg/kg, iv measured for 24 hrs by LC-MS/MS analysis; type: ADME, organism-based; details: in vivo
[11] = Oral bioavailability in Wistar Han rat at 1 mg/kg measured for 24 hrs by LC-MS/MS analysis; type: ADME, organism-based; details: in vivo
[12] = AUC (infinity) in Wistar Han rat at 1 mg/kg, po measured for 24 hrs by LC-MS/MS analysis; type: ADME, organism-based; details: in vivo
[13] = Clearance in CD1 mouse at 0.5 mg/kg, iv measured for 24 hrs by LC-MS/MS analysis; type: ADME, organism-based; details: in vivo
[14] = Oral bioavailability in CD1 mouse at 1 mg/kg measured for 24 hrs by LC-MS/MS analysis; type: ADME, organism-based; details: in vivo
[15] = Clearance in human hepatocytes assessed as measured per million cells at 0.1 to 1 uM measured for 120 mins by LC-MS/MS analysis; type: ADME, cell-based, Hepatocyte; details: dose 0.1-1 µM, read-out: CLH
[16] = Tmax in Wistar Han rat at 1 mg/kg, po measured for 24 hrs by LC-MS/MS analysis; type: ADME, organism-based; details: in vivo
[17] = Cmax in CD1 mouse at 1 mg/kg, po measured for 24 hrs by LC-MS/MS analysis; type: ADME, organism-based; details: in vivo
[18] = Volume of distribution at steady state in CD1 mouse at 0.5 mg/kg, iv measured for 24 hrs by LC-MS/MS analysis; type: ADME, organism-based; details: in vivo, read-out: Vdss
[19] = Tmax in CD1 mouse at 1 mg/kg, po measured for 24 hrs by LC-MS/MS analysis; type: ADME, organism-based; details: in vivo
[20] = Half life in Wistar Han rat at 0.5 mg/kg, iv measured for 24 hrs by LC-MS/MS analysis; type: ADME, organism-based; details: in vivo
[21] = Clearance in Wistar Han rat at 0.5 mg/kg, iv measured for 24 hrs by LC-MS/MS analysis; type: ADME, organism-based; details: in vivo
[22] = Volume of distribution at steady state in Wistar Han rat at 0.5 mg/kg, iv measured for 24 hrs by LC-MS/MS analysis; type: ADME, organism-based; details: in vivo, read-out: Vdss
[23] = AUC (infinity) in CD1 mouse at 1 mg/kg, po measured for 24 hrs by LC-MS/MS analysis; type: ADME, organism-based; details: in vivo

T1 sequence (Q13191 whole entry, the tested form may be a part): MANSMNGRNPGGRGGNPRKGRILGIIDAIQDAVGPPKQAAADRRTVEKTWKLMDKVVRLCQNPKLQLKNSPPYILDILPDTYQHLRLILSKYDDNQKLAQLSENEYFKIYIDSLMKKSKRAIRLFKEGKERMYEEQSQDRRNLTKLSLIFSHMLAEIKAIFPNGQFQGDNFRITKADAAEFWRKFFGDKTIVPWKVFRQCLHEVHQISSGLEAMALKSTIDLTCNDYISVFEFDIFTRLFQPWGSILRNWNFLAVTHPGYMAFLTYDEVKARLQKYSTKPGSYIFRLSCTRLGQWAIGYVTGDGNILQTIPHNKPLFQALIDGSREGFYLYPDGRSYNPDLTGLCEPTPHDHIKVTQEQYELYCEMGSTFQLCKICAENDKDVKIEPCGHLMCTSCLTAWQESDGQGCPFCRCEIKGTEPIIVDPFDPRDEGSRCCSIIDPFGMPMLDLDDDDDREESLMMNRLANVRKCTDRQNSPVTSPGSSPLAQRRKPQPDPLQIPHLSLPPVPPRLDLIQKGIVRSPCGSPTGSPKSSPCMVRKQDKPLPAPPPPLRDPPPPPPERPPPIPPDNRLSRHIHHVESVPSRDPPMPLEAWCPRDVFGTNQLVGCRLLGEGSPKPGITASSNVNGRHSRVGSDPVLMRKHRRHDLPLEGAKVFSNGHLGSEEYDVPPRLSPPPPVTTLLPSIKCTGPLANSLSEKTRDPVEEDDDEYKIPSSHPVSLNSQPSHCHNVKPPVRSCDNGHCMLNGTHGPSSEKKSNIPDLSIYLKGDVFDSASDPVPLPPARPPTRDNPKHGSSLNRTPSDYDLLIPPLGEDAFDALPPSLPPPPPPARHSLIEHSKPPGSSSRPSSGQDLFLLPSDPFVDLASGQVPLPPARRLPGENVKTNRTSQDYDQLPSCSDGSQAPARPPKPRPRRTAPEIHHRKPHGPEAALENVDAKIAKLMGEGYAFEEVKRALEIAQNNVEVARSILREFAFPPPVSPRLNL

SMILES	EC50 ([3]; Homo sapiens, T-cell) [µM]	IC50 [4] [µM]	logD [5]	hepatocyte CLint at up to 1 µM [6] [µL/min/1e6 cells]	microsomal CLint [7] [µL/min/mg]	IC50 [8] [µM]	also measured
C[C@@H](COCCC(=O)N1CCN2c3ncc(C(F)(F)F)cc3NC(=O)C2C1)Nc1cn[nH]c(=O)c1C(F)(F)F (stereo partly drawn)	–	–	–	–	–	–	IC50 [1]: 0.0307 µM; IC50 [2]: 0.0269 µM
CC#CCn1cc(C(F)(F)F)cc(-c2cccc([C@]3(c4nncn4C)C[C@@H](C)C3)c2)c1=O	0.85	0.16	3.3	21	76	0.034	–
Cn1cc(C(F)(F)F)c2cc(-c3cccc([C@]4(c5nncn5C)C[C@@H](C)C4)c3)c(=O)[nH]c21	–	0.86	3.8	–	83	0.19	–
C[C@@H](c1cnn(C)c1)n1cc(C(F)(F)F)cc(-c2cccc([C@]3(c4nncn4C)C[C@@H](C)C3)c2)c1=O	–	–	2.8	6.4	160	–	Cmax [9]: 0.021 µg/mL; half-life [10]: 18 min; bioavailability [11]: 15%; AUC(0-inf) [12]: 0.046 µg·h/mL; clearance [13]: 6 L/h/kg; EC50 ([3]; t-cell): 0.23 µM; bioavailability [14]: 19%; hepatocyte CLint at up to 1 µM [15]: 8.7 µL/min/1e6 cells; Tmax [16]: 45 min; Cmax [17]: 0.035 µg/mL; Vd [18]: 1.3 L/kg; Tmax [19]: 4.98 min; half-life [20]: 27 min; clearance [21]: 3.3 L/h/kg; Vd [22]: 1.6 L/kg; AUC(0-inf) [23]: 0.03 µg·h/mL
Cn1cnnc1[C@]1(c2cccc(-c3cc(OC(F)(F)F)c[nH]c3=O)c2)C[C@H](C)C1	–	1.7	2.6	–	3	0.31	–
CC#C[C@H](C)n1cc(C(F)(F)F)cc(-c2cccc([C@]3(c4nncn4C)C[C@@H](C)C3)c2)c1=O	0.46	0.04	3.9	24	190	0.03	–
Cn1cnnc1[C@]1(c2cccc(-c3cc(C4CC4)c[nH]c3=O)c2)C[C@H](C)C1	–	1.34	2.4	–	29	0.36	–
C[C@@H](C#N)n1cc(C(F)(F)F)cc(-c2cccc([C@]3(c4nncn4C)C[C@@H](C)C3)c2)c1=O	0.44	0.05	2.2	12	85	0.04	–
Cn1cnnc1C1(c2cccc(-c3cc(C(F)(F)F)c[nH]c3=O)c2)CCC1	3.98	2.2	2.1	–	14	0.34	–
Cn1cc(Cn2cc(C(F)(F)F)cc(-c3cccc([C@]4(c5nncn5C)C[C@@H](C)C4)c3)c2=O)cn1	3	0.2	2.7	9.7	200	0.04	–
Cn1cnnc1[C@]1(c2cccc(-c3nc(C(F)(F)F)c[nH]c3=O)c2)C[C@H](C)C1	–	6.55	2.1	–	15	0.89	–
Cc1c[nH]c(=O)c(-c2cccc([C@]3(c4nncn4C)C[C@@H](C)C3)c2)c1	–	6.3	2.6	–	3	1.47	–
Cc1nnc(Cn2cc(C(F)(F)F)cc(-c3cccc([C@]4(c5nncn5C)C[C@@H](C)C4)c3)c2=O)o1	2.86	0.33	1.7	7.8	29	0.07	hepatocyte CLint at up to 1 µM [15]: 1.7 µL/min/1e6 cells
CN1CCC(Cn2cc(C(F)(F)F)cc(-c3cccc([C@]4(c5nncn5C)C[C@@H](C)C4)c3)c2=O)CC1	16.7	0.46	1.3	13	47	0.074	–
Cn1cnnc1[C@]1(c2cccc(-n3cc(C(F)(F)F)ccc3=O)c2)C[C@H](C)C1	–	10.3	1.6	–	15	2.1	–
Cn1cnnc1[C@]1(c2cccc(-c3cc(C(F)(F)F)c[nH]c3=O)c2)C[C@H](C)C1	–	0.58	3.58	16	2.5	0.084	–
Cn1cnnc1[C@]1(c2cccc(-c3cc(C(F)(F)F)ccc3O)c2)C[C@H](C)C1	–	> 100	4.4	–	21	> 100	–
Cn1cnnc1C[C@]1(c2cccc(-c3cc(C(F)(F)F)c[nH]c3=O)c2)C[C@H](C#N)C1	> 30	0.96	1.1	–	6.8	0.16	–
COc1c[nH]c(=O)c(-c2cccc([C@]3(c4nncn4C)C[C@@H](C)C3)c2)c1	–	11.6	1.5	–	9.7	2.68	–
Cn1cnc(Cn2cc(C(F)(F)F)cc(-c3cccc([C@]4(c5nncn5C)C[C@@H](C)C4)c3)c2=O)c1	2.53	0.19	2.4	32	130	0.05	–
Cn1cc(Cn2cc(C(F)(F)F)cc(-c3cccc([C@]4(c5nncn5C)C[C@@H](C)C4)c3)c2=O)nn1	1.68	0.04	2.3	8.1	79	0.03	–
Cn1cc(C(F)(F)F)cc(-c2cccc([C@]3(c4nncn4C)C[C@@H](C)C3)c2)c1=O	5.89	0.88	2.4	16	37	0.145	–
C[C@H](c1cnn(C)c1)n1cc(C(F)(F)F)cc(-c2cccc([C@]3(c4nncn4C)C[C@@H](C)C3)c2)c1=O	0.59	–	2.9	21	220	–	–
CN1CC[C@H](Cn2cc(C(F)(F)F)cc(-c3cccc([C@]4(c5nncn5C)C[C@@H](C)C4)c3)c2=O)C1	10.8	0.33	1.1	2.4	13	0.05	–
Cn1cnnc1[C@@H](c1cccc(-c2cc(C(F)(F)F)c[nH]c2=O)c1)C1CCC1 (racemic)	5.29	0.41	2.5	–	25	0.059	–
